Measured values reported in patent US12325695B2, “5-(4-pyridyloxy)pyrazole compounds serving as TGF-βR1 kinase inhibitor” (JIANGSU AOSAIKANG PHARMACEUTICAL CO., LTD., priority 2019, dated 2025).

Columns and labels:
pSmad = assay: Inhibitory activity assay on Smad phosphorylation (HEK-Blue-TGFβ cells, Quanti-Blue readout); format: cell-based; conditions: TGFβ stimulation, 24 hours, read-out: pSmad inhibition IC50
Description: Experimental Embodiment 1: Inhibitory Activity Assay on Smad Phosphorylation
Both HEK-Blue-TGFβ cells and Quanti-Blue reagent were purchased from Invivogen Company. TGFβ was purchased from PeproTech.
The compounds to be tested were diluted 5 times with a row gun to the 8th concentration, that is, diluted from 1 mmol/L to 12.8 nmol/L, the final concentration of dimethyl sulfoxide was 100%, and a double hole experiment was set up. 2 μL of inhibitors of each concentration gradient, 18 μL of TGFβ (20 ng/mL), and 180 μL of cell suspension (140,000 cells/mL) were added to the microplate. At this time, the final concentration gradient of the compound was […] diluted to 0.13 nmol/L. The cell plate was placed at 37° C. in a 5% CO2 incubator for 24 hours. After the reaction was completed, 40 μL of cell culture supernatant was taken out from each well to a new transparent microtiter plate, 160 μL of Quanti-Blue reagent was added to each well, and then the reaction was carried out at 37° C. for 60 minutes. After the reaction was completed, the PerkinElmer Envision multi-label analyzer was used to read the absorption light at 630 nm.
The original data was converted into the inhibition rate, and the IC50 value can be obtained by curve fitting with four parameters.

[1] = system: mouse colon cancer CT-26 cells; assay: Anti-tumor drug efficacy study, mouse colon cancer CT-26 cell BALB/c mouse subcutaneous allograft tumor model; format: in vivo, BALB/c mice; conditions: 50 mg/kg, twice a day, oral
Description: (§1) Experimental Embodiment 3: Anti-Tumor Drug Efficacy Study of Mouse Colon Cancer CT-26 Cell BALB/c Mouse Subcutaneous Allograft Tumor Model In Vivo
The main purpose of this study is to study the anti-tumor drug efficacy of the tested compounds on the CT26 mouse allograft tumor model.
(§2) Cell culture: mouse colon cancer CT-26 cells were cultured in monolayer in vitro, and the culture conditions were RPMI-1640 medium with 10% fetal bovine serum, 37° C. and 5% carbon dioxide incubator. Trypsin-ethylenediaminetetraacetic acid (EDTA) was used for routine digestion and passage twice a week. When the cell saturation was 80%-90% and the number reached the requirement, the cells were collected, counted, and inoculated.
(§3) Animals: BALB/c mice, female, 6-8 weeks old.
(§4) Tumor inoculation: 0.1 mL of DPBS cell suspension containing 3×10^5 CT26 cells was subcutaneously inoculated into the right groin of each mouse, and administration was started on the day of inoculation.
Experimental index: The experimental index was to investigate whether the tumor growth was inhibited, delayed or cured. The tumor diameter was measured with a vernier caliper twice a week. The calculation formula for tumor volume is: V=0.5 L×W^2, where L and W refer to the long diameter and short diameter of the tumor, respectively.

[2] = Pharmacokinetics study of cassette drug administration in vivo; set-up: species or system CD-1 male mice; conditions: male, mouse, plasma, CD-1 mice; for Vd: read-out: Vdss; for bioavailability: oral (1.5 mg/kg) vs injection (1 mg/kg), read-out: F (bioavailability)
Description: Experimental Embodiment 2: Pharmacokinetics Study of Cassette Drug Administration in Vivo
The purpose of this experiment is to evaluate the pharmacokinetic behavior of the compound after a single intravenous injection and intragastric administration, and to investigate the bioavailability after intragastric administration.
CD-1 male mice aged from 7 to 10 weeks were selected, and the doses for intravenous and oral administration were 1 mg/kg and 1.5 mg/kg, respectively. The mice were fasted for at least 12 hours before the administration, and resumed feeding 4 hours after the administration. The mice were free to drink during the entire experiment.
(§5) On the day of the experiment, animals in the intravenous group were given a single injection of the corresponding compound through the tail vein with a volume of 5 mL/kg; the oral group was given the corresponding compound by a single gavage with a volume of 5 mL/kg. The animals were weighed before administration, and the administration volume was calculated according to the body weight. Sample collection time: 0.083 hours, 0.25 hours, 0.5 hours, 1 hour, 2 hours, 4 hours, 8 hours, 24 hours in the injection group; 0.25 hours, 0.5 hours, 1 hour, 2 hours, 4 hours, 6 hours, 8 hours, 24 hours in the gavage group. Approximately 30 μL of whole blood was collected through the saphenous vein at each time point to prepare plasma for high-performance liquid chromatography-tandem mass spectrometry (LC-MS/MS) for concentration determination. All animals were euthanized by CO2 anesthesia after collecting PK samples at the last time point. The non-compartmental model of WinNonlin™ Version 6.3 (Pharsight, Mountain View, CA) pharmacokinetic software was used to process the plasma concentration, and the pharmacokinetic parameters were calculated using the linear and logarithmic trapezoidal method.

[3] = Pharmacokinetic studies in vivo (single compound); set-up: species or system CD-1 male mice; conditions: CD-1 mice; for AUC(0-t) / clearance / half-life / Vd / Cmax / Tmax: male, mouse, plasma; for Vd: read-out: Vdss
Description: Experiment 4: Pharmacokinetic Studies In Vivo
The purpose of this experiment is to evaluate the pharmacokinetic behavior of the compounds after a single intravenous injection and intragastric administration, and to investigate the bioavailability after intragastric administration.
[…] The mice were fasted for at least 12 hours before the administration, and resumed feeding 4 hours after the administration. The mice were free to drink during the entire experiment.
as §5, with “volume of 10 mL/kg. The” for “volume of 5 mL/kg. The”, “the injection group, 0.25 hours,” for “the injection group; 0.25 hours,”

[4] = Drug concentration in tumor tissue and plasma AUC in the CT26 tumor model study; format: in vivo, BALB/c mice; conditions: 50 mg/kg, twice a day, oral; for AUC: female, BALB/c, mouse, plasma
Description: as §1, §2, §3, §4

**Q.** Which IC50 (pSmad) does the source give for `COc1cccc(-n2nc(C)cc2Oc2ccnc(Nc3cccc(C(N)=O)c3)c2)n1` [Compound 12] here?
**A.** 432 nM

**Q.** What does the source list for `Cc1cccc(-n2nc(C)cc2Oc2ccnc(Nc3cccc(C(N)=O)c3)c2)n1` [Compound 6]?
**A.** IC50 (pSmad): 79.2 nM; % Inhibitory rate on Day 29 [1]: 73%; Mean tumor volume Day 29 [1]: 601.7 mm^3; AUC(0-t) ([2]; iv, injection (1 mg/kg)): 1.81 µM·h; clearance ([2]; iv, injection (1 mg/kg)): 24.9 mL/min/kg; half-life ([2]; iv, injection (1 mg/kg)): 1.32 h; Vd ([2]; iv, injection (1 mg/kg)): 1.05 L/kg; bioavailability [2]: 54.6%; AUC(0-t) ([2]; oral (1.5 mg/kg)): 1.45 µM·h; Cmax ([2]; oral (1.5 mg/kg)): 804 nM; Tmax ([2]; oral (1.5 mg/kg)): 0.25 h; half-life ([2]; oral (1.5 mg/kg)): 2.84 h

**Q.** For `Cc1cccc(-n2nc(C)cc2Oc2ccnc(Nc3cnccn3)c2)n1` [Compound 8], which IC50 (pSmad) is on record?
**A.** 684 nM

**Q.** With `Cc1cccc(-n2nc(C)cc2Oc2ccnc(Nc3cccc(C(N)=O)c3)c2)c1` [Compound 1] as the compound, how does the IC50 (pSmad) read?
**A.** 65.5 nM

**Q.** What does the source list for `Cc1cc(Oc2ccnc(Nc3cccc(C(N)=O)c3)c2)n(C2CCOCC2)n1` [Compound 14]?
**A.** IC50 (pSmad): 336 nM; AUC(0-t) ([3]; iv, injection, 1 mg/kg): 1.34 µM·h; clearance ([3]; iv, injection, 1 mg/kg): 31.5 mL/min/kg; half-life ([3]; iv, injection, 1 mg/kg): 1.17 h; Vd ([3]; iv, injection, 1 mg/kg): 1.64 L/kg; AUC(0-t) ([3]; oral, 2.5 mg/kg): 2.7 µM·h; Cmax ([3]; oral, 2.5 mg/kg): 1560 nM; Tmax ([3]; oral, 2.5 mg/kg): 0.5 h; half-life ([3]; oral, 2.5 mg/kg): 1.15 h; F ([3]; oral 2.5 mg/kg vs injection 1 mg/kg): 80.9%; % Inhibitory rate on Day 29 [1]: 81%; Mean tumor volume Day 29 [1]: 424.78 mm^3; AUC(0-t) ([2]; iv, injection (1 mg/kg)): 1.06 µM·h; clearance ([2]; iv, injection (1 mg/kg)): 37 mL/min/kg; half-life ([2]; iv, injection (1 mg/kg)): 1.37 h; Vd ([2]; iv, injection (1 mg/kg)): 2.39 L/kg; bioavailability [2]: 75.9%; AUC(0-t) ([2]; oral (1.5 mg/kg)): 1.16 µM·h; Cmax ([2]; oral (1.5 mg/kg)): 567 nM; Tmax ([2]; oral (1.5 mg/kg)): 0.25 h; half-life ([2]; oral (1.5 mg/kg)): 1.61 h; Drug concentration in tumor tissue 1 hour after administration [4]: 11318 nmol/kg; Drug concentration in tumor tissue 12 hours after administration [4]: 820 nmol/kg; AUC [4]: 30.1 µM·h

**Q.** Which results are given for `Cc1cccc(-c2nn3c(c2-c2ccnc4ccc(C(N)=O)cc24)CCC3)n1` [Compound A, Galunisertib, reference compound]?
**A.** AUC(0-t) ([3]; iv, injection, 1 mg/kg): 0.814 µM·h; clearance ([3]; iv, injection, 1 mg/kg): 56 mL/min/kg; half-life ([3]; iv, injection, 1 mg/kg): 0.45 h; Vd ([3]; iv, injection, 1 mg/kg): 1.31 L/kg; AUC(0-t) ([3]; oral, 5 mg/kg): 1.37 µM·h; Cmax ([3]; oral, 5 mg/kg): 1840 nM; Tmax ([3]; oral, 5 mg/kg): 0.25 h; half-life ([3]; oral, 5 mg/kg): 1.1 h; F ([3]; oral 5 mg/kg vs injection 1 mg/kg): 33.5%; % Inhibitory rate on Day 29 [1]: 66%; Mean tumor volume Day 29 [1]: 758.19 mm^3; AUC(0-t) ([2]; iv, injection (1 mg/kg)): 1.15 µM·h; clearance ([2]; iv, injection (1 mg/kg)): 37.3 mL/min/kg; half-life ([2]; iv, injection (1 mg/kg)): 0.477 h; Vd ([2]; iv, injection (1 mg/kg)): 0.679 L/kg; bioavailability [2]: 34.9%; AUC(0-t) ([2]; oral (1.5 mg/kg)): 0.586 µM·h; Cmax ([2]; oral (1.5 mg/kg)): 712 nM; Tmax ([2]; oral (1.5 mg/kg)): 0.25 h; half-life ([2]; oral (1.5 mg/kg)): 1.45 h; Drug concentration in tumor tissue 1 hour after administration [4]: 988 nmol/kg; Drug concentration in tumor tissue 12 hours after administration [4]: 180 nmol/kg; AUC [4]: 6.17 µM·h

**Q.** With `Cc1cccc(-n2nc3c(c2Oc2ccnc(Nc4cccc(C(N)=O)c4)c2)CCC3)n1` [Compound 13] as the compound, how does the IC50 (pSmad) read?
**A.** 59.6 nM

**Q.** Which IC50 (pSmad) does the source give for `NC(=O)c1cccc(Nc2cc(Oc3c4c(nn3C3CCOCC3)CCCC4)ccn2)c1` [Compound 17] here?
**A.** 621 nM

**Q.** Which IC50 (pSmad) does the source give for `Cc1nn(C2CCOCC2)c(Oc2ccnc(Nc3cccc(C(N)=O)c3)c2)c1C` [Compound 15] here?
**A.** 416 nM

**Q.** Which IC50 (pSmad) does the source give for `CC(C)c1cc(Oc2ccnc(Nc3cccc(C(N)=O)c3)c2)n(C2CCOCC2)n1` [Compound 19] here?
**A.** 587 nM

**Q.** For `NC(=O)c1cccc(Nc2cc(Oc3cc(C4CC4)nn3C3CCOCC3)ccn2)c1` [Trifluoroacetate of compound 18], which IC50 (pSmad) is on record?
**A.** 283 nM

**Q.** For `Cc1cccc(-n2nccc2Oc2ccnc(Nc3cccc(C(N)=O)c3)c2)n1` [Compound 2], which IC50 (pSmad) is on record?
**A.** 247 nM

**Q.** With `Cc1cccc(-n2nc3c(c2Oc2ccnc(Nc4cccc(C(N)=O)c4)c2)CCCC3)n1` [Compound 3] as the compound, how does the IC50 (pSmad) read?
**A.** 54.3 nM

**Q.** For `Cc1cccc(-n2nc(C)cc2Oc2ccnc(Nc3ccnc(C(C)(C)O)c3)c2)n1` [Compound 9], which IC50 (pSmad) is on record?
**A.** 268 nM

**Q.** With `Cc1cccc(-n2nc(C)cc2Oc2ccnc(Nc3cnn(CCO)c3)c2)n1` [Compound 10] as the compound, how does the IC50 (pSmad) read?
**A.** 355 nM

**Q.** With `NC(=O)c1cccc(Nc2cc(Oc3c4c(nn3C3CCOCC3)CCC4)ccn2)c1` [Compound 16] as the compound, how does the IC50 (pSmad) read?
**A.** 166 nM

**Q.** For `Cc1cccc(-n2nc(C)cc2Oc2ccnc(Nc3ccn(CC(C)(C)O)n3)c2)n1` [Compound 11], which IC50 (pSmad) is on record?
**A.** 191 nM

**Q.** With `Cc1cccc(-n2nc(C)cc2Oc2ccnc(Nc3cnn(CC(C)(C)O)c3)c2)n1` [Compound 5] as the compound, how does the IC50 (pSmad) read?
**A.** 441 nM

**Q.** With `Cc1cccc(-n2nc(C)cc2Oc2ccnc(Nc3cnn(CC(C)C)c3)c2)n1` [Compound 7] as the compound, how does the IC50 (pSmad) read?
**A.** 354 nM

**Q.** Which IC50 (pSmad) does the source give for `CCc1cc(Oc2ccnc(Nc3cccc(C(N)=O)c3)c2)n(-c2cccc(C)n2)n1` [Compound 4] here?
**A.** 53.8 nM
